Data as given in patent publication US20090181968A1, “Novel 3-Bicyclocarbonylaminopyridine-2-Carboxamides or 3-Bicyclocarbonylaminopyrazine-2-Carboxamides” (priority 2005, published 2009).
Like-named read-outs stand apart in the source and are kept apart here.

What was measured:
[1] = target: T1, human CB1 receptor (Homo sapiens, UniProt P21554); assay: hCB1 GTPγS binding; assay type: biochemical; settings: for Emax: read-out: Emax hCB1
T1 construct: purchased Perkin-Elmer
Protocol: Cloned human CB1 receptor from Perkin-Elmer (hCB1) are thawed at 37° C., passed 3 times through a 23-gauge blunt-end needle and diluted in the GTPγS binding buffer (50 mM Hepes, 20 mM NaOH, 100 mM NaCl, 1 mM EDTA, 5 mM MgCl2, pH 7.4, 0.1% BSA). […] The basal and maximal stimulated binding is determined in absence and presence of 10 μM Win 55,212-2. The membranes are pre-incubated for 5 minutes with 112.5 μM GDP prior to distribution in plates (30 μM GDP final). The plates are vortexed and incubated for 60 minutes at room temperature, filtered on Unifilters GF/B (pre-soaked in water) with the Packard harvester using 3 ml of wash buffer (50 mM Tris, 5 mM MgCl2, 50 mM NaCl, pH 7.0). The filters are dried for 1 hour at 55° C. The radioactivity (cpm) is counted in a TopCount (Packard) after adding 65 μl/well of MS-20 scintillation liquid.

[2] = target: T1, human CB1 receptor; assay: hCB1 receptor binding (3H-CP55,940 displacement)
Protocol: hCB1 and hCB2 Receptor Binding
Membranes are produced from either HEK 293S cells expressing the cloned human CB1 receptor (hCB1: clone #24) or Sf9 cells, using the baculovirus system, expressing the cloned human CB2 receptor (hCB2). The membranes are thawed at 37° C., passed 3 times through a 23-gauge blunt-end needle, diluted in the cannabinoid binding buffer (50 mM Tris, 2.5 mM EDTA, 5 mM MgCl2, and 0.5 mg/mL BSA fatty acid free, pH 7.4) and aliquots containing the appropriate amount of protein are distributed in 96-well plates. The IC50 of the compounds of the present invention at hCB1 and hCB2 are evaluated from 10-point dose-response curves done with ^3H-CP55,940 at 20000 to 25000 dpm per well (0.17-0.21 nM) in a final volume of 300 μl. The total and non-specific binding are determined in the absence and presence of 0.2 μM of HU210 respectively. The plates are vortexed and incubated for 60 minutes at room temperature, filtered through Unifilters GF/B (pre-soaked in 0.1% polyethyleneimine) with the Packard harvester using 3 mL of wash buffer (50 mM Tris, 5 mM MgCl2, 0.5 mg BSA pH 7.0). The filters are dried for 1 hour at 55° C. The radioactivity (cpm) is counted in a TopCount (Packard) after adding 65 μl/well of MS-20 scintillation liquid.
Based on the above assays, the dissociation constant (Ki) for a particular compound of the present invention towards a particular receptor is determined using the following equation: […]
wherein IC50 is the concentration of the compound of the present invention at which 50% displacement has been observed; [rad] is a standard or reference radioactive ligand concentration at that moment; Kd is the dissociation constant of the radioactive ligand towards the particular receptor.

T1 sequence (P21554 whole entry): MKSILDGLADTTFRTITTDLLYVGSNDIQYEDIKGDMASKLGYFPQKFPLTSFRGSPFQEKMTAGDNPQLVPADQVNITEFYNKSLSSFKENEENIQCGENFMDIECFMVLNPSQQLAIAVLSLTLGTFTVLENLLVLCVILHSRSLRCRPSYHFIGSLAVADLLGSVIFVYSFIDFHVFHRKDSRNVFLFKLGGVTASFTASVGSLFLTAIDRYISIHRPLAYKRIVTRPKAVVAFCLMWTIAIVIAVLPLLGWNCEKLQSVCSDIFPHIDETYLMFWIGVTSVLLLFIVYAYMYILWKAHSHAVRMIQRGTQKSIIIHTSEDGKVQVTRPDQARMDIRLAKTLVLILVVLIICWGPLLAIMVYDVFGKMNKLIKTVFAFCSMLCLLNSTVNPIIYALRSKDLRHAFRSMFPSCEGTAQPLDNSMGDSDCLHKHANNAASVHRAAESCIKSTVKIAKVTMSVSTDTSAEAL

| Compound | EC50 [1] | Emax [1] | Ki [2] | EC50 ([1]; GTPγ35S binding, cloned human CB1 receptor membranes, read-out: EC50 hCB1) | Ki ([2]; membranes of HEK 293S cells expressing cloned human CB1 receptor, Ki=IC50/(1+[rad]/Kd), read-out: Ki hCB1) |
| --- | --- | --- | --- | --- | --- |
| O=C(NCC1CCOCC1)c1nc(OS(=O)(=O)CCC(F)(F)F)cnc1NC(=O)c1ccc(Cn2ccnn2)c2ccccc12 [Example 44, 6-[(Tetrahydro-2H-pyran-4-ylmethyl)carbamoyl]-5-{[4-(1H-1,2,3-triazol-1-ylmethyl)-1-naphthoyl]amino}pyrazin-2-yl 3,3,3-trifluoropropane-1-sulfonate] | 240 nM | 140% | 270 nM | – | – |
| CN(C)C(=O)COc1ccc(NC(=O)c2ccc(Cn3ccnn3)c3ccccc23)c(C(=O)NCC2CCC2)n1 [Example 6, N-(cyclobutylmethyl)-6-[2-(dimethylamino)-2-oxoethoxy]-3-{[4-(1H-1,2,3-triazol-1-ylmethyl)-1-naphthoyl]amino}pyridine-2-carboxamide] | 80 nM | 88% | 52 nM | – | – |
| O=C(NCC1CCOCC1)c1ncccc1NC(=O)c1csc2ccccc12 [Example 56, 3-[(1-benzothien-3-yl-carbonyl)amino]-N-(tetrahydro-2H-pyran-4-ylmethyl)pyridine-2-carboxamide] | – | 88% | – | 380 nM | 260 nM |
| O=C(COc1ccc(NC(=O)c2ccc(Cn3ccnn3)c3ccccc23)c(C(=O)NCC2CCC2)n1)NCCO [Example 7, N-(cyclobutylmethyl)-6-{2-[(2-hydroxyethyl)amino]-2-oxoethoxy}-3-{[4-(1H-1,2,3-triazol-1-ylmethyl)-1-naphthoyl]amino}pyridine-2-carboxamide] | 120 nM | 110% | 59 nM | – | – |
| CC(C)OC(=O)COc1ccc(NC(=O)c2ccc(Cn3ccnn3)c3ccccc23)c(C(=O)NCC2CCC2)n1 [Example 29, {6-(Cyclobutylmethyl-carbamoyl)-5-[(4-[1,2,3]triazol-1-ylmethyl-naphthalene-1-carbonyl)-amino]-pyridin-2-yloxy}-acetic Acid Isopropyl Ester] | 7.1 nM | 80% | 5.4 nM | – | – |
| O=C(NCC1CCC1)c1ncccc1NC(=O)c1ccc(Cn2cc(F)nn2)c2ccccc12 [Example 50, N-(Cyclobutylmethyl)-3-({4-[(4-fluoro-1H-1,2,3-triazol-1-yl)methyl]-1-naphthoyl}amino)pyridine-2-carboxamide] | 46 nM | 48% | 51 nM | – | – |
| COCc1ccc(C(=O)Nc2ccc(OCCO)nc2C(=O)NCC2CCOCC2)c2ccccc12 [Example 35, 6-(2-Hydroxy-ethoxy)-3-[(4-methoxymethyl-naphthalene-1-carbonyl)-amino]-pyridine-2-carboxylic Acid (tetrahydro-pyran-4-ylmethyl)-amide] | 99 nM | 93% | 53 nM | – | – |
| O=C(NCC1CCC1)c1nc(OCc2ccccn2)ccc1NC(=O)c1ccc(Cn2ccnn2)c2ccccc12 [Example 14, N-(cyclobutylmethyl)-6-(pyridin-2-ylmethoxy)-3-{[4-(1H-1,2,3-triazol-1-ylmethyl)-1-naphthoyl]amino}pyridine-2-carboxamide] | 7.3 nM | 110% | 3.2 nM | – | – |
| COCc1cnnn1Cc1ccc(C(=O)Nc2cccnc2C(=O)NCC2CCC2)c2ccccc12 [Example 15, N-(cyclobutylmethyl)-3-[(4-{[5-(methoxymethyl)-1H-1,2,3-triazol-1-yl]methyl}-1-naphthoyl)amino]pyridine-2-carboxamide] | 22 nM | 120% | 13 nM | – | – |
| O=C(COc1ccc(NC(=O)c2ccc(Cn3ccnn3)c3ccccc23)c(C(=O)NCC2CCC2)n1)NCc1ccccc1 [Example 27, 6-(Benzylcarbamoyl-methoxy)-3-[(4-[1,2,3]triazol-1-ylmethyl-naphthalene-1-carbonyl)-amino]-pyridine-2-carboxylic Acid Cyclobutylmethyl-amide] | 42 nM | 94% | 35 nM | – | – |
